Tests used:
DENV-1 strain TC974#666 = assay: Tetravalent RT-qPCR assay, serotype 1; assay type: cell-based, Dengue virus
Description: (§1) The antiviral activity of the compounds of the invention was tested against DENV-1 strain TC974#666 (NCPV), DENV-2 strain 16681, DENV-3 strain H87 (NCPV) and DENV-4 strain H241 (NCPV) in a RT-qPCR assay. Therefore, Vero cells were infected with either DENV-1, or -2, or -3, or -4 in the presence or absence of test compounds. At day 3 post-infection, the cells were lysed and cell lysates were used to prepare cDNA of both a viral target (the 3′UTR of DENV; Table 2) and a cellular reference gene (1-actin, Table 2). Subsequently, a duplex real time PCR was performed on a Lightcycler480 instrument. The generated Cp value is inversely proportional to the amount of RNA expression of these targets. Inhibition of DENV replication by a test compound results in a shift of Cp's for the 3′UTR gene. On the other hand, if a test compound is toxic to the cells, a similar effect on β-actin expression will be observed. The comparative ΔΔCp method is used to calculate EC50, which is based on the relative gene expression of the target gene (3′UTR) normalized with the cellular housekeeping gene (β-actin). In addition, CC50 values are determined based on the Cp values acquired for the housekeeping gene β-actin.
(§2) The culture medium consisted of minimal essential medium supplemented with 2% of heat-inactivated fetal calf serum, 0.04% gentamycin (50 mg/mL) and 2 mM of L-glutamine. Vero cells, obtained from ECACC, were suspended in culture medium and 75 μL/well was added in 96-well plates (10000 cells/well), which already contain the antiviral compounds. […] In addition, each plate contains wells which are assigned as virus controls (containing cells and virus in the absence of compound) and cell controls (containing cells in the absence of virus and compound). Once the cells were added in the plates, the plates were incubated in a fully humidified incubator (37° C., 5% CO2) until the next day. Dengue viruses serotype-1, 2, 3 and 4 were diluted in order to obtain a Cp of ˜22-24 in the assay. Therefore, 25 μL of virus suspension was added to all the wells containing test compound and to the wells assigned as virus control. In parallel, 25 μL of culture medium was added to the cell controls. Next, the plates were incubated for 3 days in a fully humidified incubator (37° C., 5% CO2). After 3 days, the supernatant was removed from the wells and the cells were washed twice with ice-cold PBS (˜100 μL). The cell pellets within the 96-well plates were stored at −80° C. for at least 1 day. Next, RNA was extracted using the Cells-to-CT™ lysis kit, according to the manufacturer's guideline (Life Technologies). The cell lysates can be stored at −80° C. or immediately used in the reverse transcription step.
(§3) In preparation of the reverse transcription step, mix A (table 3A) was prepared and 7.57 μL/well was dispensed in a 96-well plate. After addition of 5 μL of the cell lysates, a five minute denaturation step at 75° C. was performed (table 3B). Afterwards, 7.43 μL of mix B was added (table 3C) and the reverse transcription step was initiated (table 3D) to generate cDNA.
(§4) Finally, a RT-qPCR mix was prepared, mix C (table 4A), and 22.02 μL/well was dispensed in 96-well LightCycler qPCR plates to which 3 μL of cDNA was added and the qPCR was performed according to the conditions in table 4B on a LightCycler 480.
(§5) Using the LightCycler software and an in-house LIMS system, dose response curves for each compound were calculated and the half maximal effective concentration (EC50) and the half maximal cytotoxic concentration (CC50) were determined (Tables 5-8).

DENV-3 strain H87 = assay: Tetravalent RT-qPCR assay, serotype 3; assay type: cell-based, Dengue virus
Description: as §1, §2, §3, §4, §5

DENV-4 strain H241 = assay: Tetravalent RT-qPCR assay, serotype 4; assay type: cell-based, Dengue virus
Description: as §1, §2, §3, §4, §5

DENV-2 strain 16681 = assay: Tetravalent RT-qPCR assay, serotype 2; assay type: cell-based, Dengue virus
Description: as §1, §2, §3, §4, §5

DENV-2 16681 strain = assay: DENV-2 antiviral assay (eGFP-labeled virus in Vero cells); assay type: cell-based, Dengue virus; conditions: for EC50: DENV-2 16681 eGFP, Vero cells, MOI 0.5, 3 days; for SI: SI=CC50/EC50, DENV-2 antiviral assay
in vitro = conditions: African green monkey
Vero cells = conditions: African green monkey
[1] = Dengue virus, DENV2, Vero, 72 h

## COc1cc(NC(C(=O)N2CCc3cc(OC)c(C(F)(F)F)cc32)c2ccc(F)cc2OCCO)cc(S(C)(=O)=O)c1 (single isomer, unassigned) [Compound 2A]
DENV-1 strain TC974#666; Dengue virus, DENV1, 72 h, RT-qPCR serotype 1 TC974#666, Vero cells, day 3
  EC50: 4.6 nM
DENV-1 strain TC974#666; RT-qPCR serotype 1 TC974#666
  SI: >981
DENV-3 strain H87; Dengue virus, DENV3, 72 h, RT-qPCR serotype 3 H87, Vero cells, day 3
  EC50: 20 nM
DENV-3 strain H87; RT-qPCR serotype 3 H87
  SI: >157
DENV-4 strain H241; Dengue virus, DENV4, 72 h, RT-qPCR serotype 4 H241, Vero cells, day 3, read-out: EC50
  EC50: 100 nM
DENV-4 strain H241; RT-qPCR serotype 4 H241
  SI: 35
DENV-2 strain 16681; Dengue virus, DENV2, 72 h, RT-qPCR serotype 2 16681, Vero cells, day 3
  EC50: 1.3 nM
DENV-2 strain 16681; RT-qPCR serotype 2 16681
  SI: 4910
DENV-2 16681 strain
  EC50: 0.93 nM
  SI: 16400
In vitro
  CC50: 9600 nM

## COc1cc(NC(C(=O)N2CCc3cc(OC)c(C(F)(F)F)cc32)c2ccc(F)cc2OCCO)cc(S(C)(=O)=O)c1 (racemic) [Compound 2, 2-(4-fluoro-2-(2-hydroxyethoxy)phenyl)-2-((3-methoxy-5-(methylsulfonyl)phenyl)amino)-1-(5-methoxy-6-(trifluoromethyl)indolin-1-yl)ethanone]
DENV-2 16681 strain; [1]
  EC50: 1 nM
DENV-2 16681 strain
  SI: 13700
In vitro
  CC50: 12000 nM

## COc1cc(NC(C(=O)N2CCc3ccc(OC(F)(F)F)cc32)c2ccc(Cl)cc2OCCCC(=O)O)cc(S(C)(=O)=O)c1 (single isomer, unassigned) [Compound 9A]
DENV-2 16681 strain
  EC50: 120 nM
  SI: 93
In vitro
  CC50: 12000 nM

## COc1cc(NC(C(=O)N2CCc3cc(OC)c(C(F)(F)F)cc32)c2ccc(Cl)cc2OCCCC(=O)O)cc(S(C)(=O)=O)c1 (single isomer, unassigned) [Compound 8A]
DENV-2 16681 strain
  EC50: 95 nM
  SI: 126
In vitro
  CC50: 12000 nM

## COc1cc(NC(C(=O)N2CCc3cc(OC)c(C(F)(F)F)cc32)c2ccc(Cl)cc2OCCO)cc(S(C)(=O)=O)c1 (racemic) [Compound 5, 2-(4-chloro-2-(2-hydroxyethoxy)phenyl)-2-((3-methoxy-5-(methylsulfonyl)phenyl)amino)-1-(5-methoxy-6-(trifluoromethyl)indolin-1-yl)ethanone]
DENV-2 16681 strain; [1]
  EC50: 0.7 nM
DENV-2 16681 strain
  SI: 15700
In vitro
  CC50: 11000 nM

## COc1cc(NC(C(=O)N2CCc3ccc(OC(F)(F)F)cc32)c2ccc(F)cc2OCCO)cc(S(C)(=O)=O)c1 (single isomer, unassigned) [Compound 3A]
DENV-2 16681 strain
  EC50: 570 nM
  SI: 19
In vitro
  CC50: 11000 nM

## COc1cc(NC(C(=O)N2CCc3ccc(C(F)(F)F)cc32)c2ccc(Cl)cc2OCCO)cc(S(C)(=O)=O)c1 (racemic) [Compound 4, 2-(4-chloro-2-(2-hydroxyethoxy)phenyl)-2-((3-methoxy-5-(methylsulfonyl)phenyl)amino)-1-(6-(trifluoromethyl)indolin-1-yl)ethanone]
DENV-2 16681 strain; [1]
  EC50: 0.66 nM
DENV-2 16681 strain
  SI: 11600
In vitro
  CC50: 7700 nM

## COc1cc(NC(C(=O)N2CCc3ccc(OC(F)(F)F)cc32)c2ccc(F)cc2OCCO)cc(S(C)(=O)=O)c1 (racemic) [Compound 3, 2-(4-fluoro-2-(2-hydroxyethoxy)phenyl)-2-((3-methoxy-5-(methylsulfonyl)phenyl)amino)-1-(6-(trifluoromethoxy)indolin-1-yl)ethanone]
DENV-2 16681 strain; [1]
  EC50: 0.74 nM
DENV-2 16681 strain
  SI: 10700
In vitro
  CC50: 7900 nM

## COc1cc(NC(C(=O)N2CCc3ccc(C(F)(F)F)cc32)c2ccc(F)cc2OCCO)cc(S(C)(=O)=O)c1 (racemic) [Compound 1, 2-(4-fluoro-2-(2-hydroxyethoxy)phenyl)-2-((3-methoxy-5-(methylsulfonyl)phenyl)amino)-1-(6-(trifluoromethyl)indolin-1-yl)ethan-1-one]
DENV-2 16681 strain; [1]
  EC50: 3.2 nM
DENV-2 16681 strain
  SI: 4397
In vitro
  CC50: 14000 nM

## COc1cc(NC(C(=O)N2CCc3cc(OC)c(C(F)(F)F)cc32)c2ccc(F)cc2OCCO)cc(S(C)(=O)=O)c1 (single isomer, unassigned) [Compound 2B]
DENV-2 16681 strain
  EC50: 170 nM
  SI: 105
Vero cells
  CC50: 18000 nM

## COc1cc(NC(C(=O)N2CCc3ccc(OC(F)(F)F)cc32)c2ccc(Cl)cc2OCCO)cc(S(C)(=O)=O)c1 (racemic) [Compound 6, 2-(4-chloro-2-(2-hydroxyethoxy)phenyl)-2-((3-methoxy-5-(methylsulfonyl)phenyl)amino)-1-(6-(trifluoromethoxy)indolin-1-yl)ethanone]
DENV-2 16681 strain; [1]
  EC50: 0.43 nM
DENV-2 16681 strain
  SI: 7070
In vitro
  CC50: 3600 nM

## COc1cc(NC(C(=O)N2CCc3cc(OC)c(C(F)(F)F)cc32)c2ccc(Cl)cc2OCCCC(=O)O)cc(S(C)(=O)=O)c1 (racemic) [Compound 8, 4-(5-chloro-2-(1-((3-methoxy-5-(methylsulfonyl)phenyl)amino)-2-(5-methoxy-6-(trifluoromethyl)indolin-1-yl)-2-oxoethyl)phenoxy)butanoic acid]
DENV-2 16681 strain; [1]
  EC50: 1.9 nM
DENV-2 16681 strain
  SI: 7460
In vitro
  CC50: 14000 nM

## COc1cc(NC(C(=O)N2CCc3ccc(C(F)(F)F)cc32)c2ccc(Cl)cc2OCCCC(=O)O)cc(S(C)(=O)=O)c1 (single isomer, unassigned) [Compound 7A]
DENV-2 16681 strain
  EC50: 69 nM
  SI: 165
In vitro
  CC50: 11000 nM

## COc1cc(NC(C(=O)N2CCc3ccc(C(F)(F)F)cc32)c2ccc(Cl)cc2OCCO)cc(S(C)(=O)=O)c1 (single isomer, unassigned) [Compound 4B]
DENV-2 16681 strain
  EC50: 16 nM
  SI: 693
Vero cells
  CC50: 11000 nM

## COc1cc(NC(C(=O)N2CCc3ccc(OC(F)(F)F)cc32)c2ccc(Cl)cc2OCCO)cc(S(C)(=O)=O)c1 (single isomer, unassigned) [Compound 6B]
DENV-2 16681 strain
  EC50: 20 nM
  SI: 492
Vero cells
  CC50: 10000 nM

## COc1cc(NC(C(=O)N2CCc3ccc(C(F)(F)F)cc32)c2ccc(F)cc2OCCO)cc(S(C)(=O)=O)c1 (single isomer, unassigned) [Compound 1A]
DENV-2 16681 strain
  EC50: 2400 nM
  SI: 4.8
Vero cells
  CC50: 12000 nM

## COc1cc(NC(C(=O)N2CCc3ccc(OC(F)(F)F)cc32)c2ccc(Cl)cc2OCCCC(=O)O)cc(S(C)(=O)=O)c1 (racemic) [Compound 9, 4-(5-chloro-2-(1-((3-methoxy-5-(methylsulfonyl)phenyl)amino)-2-oxo-2-(6-(trifluoromethoxy)indolin-1-yl)ethyl)phenoxy)butanoic acid]
DENV-2 16681 strain; [1]
  EC50: 0.31 nM
DENV-2 16681 strain
  SI: 40200
In vitro
  CC50: 12000 nM

## COc1cc(NC(C(=O)N2CCc3cc(OC)c(C(F)(F)F)cc32)c2ccc(Cl)cc2OCCO)cc(S(C)(=O)=O)c1 (single isomer, unassigned) [Compound 5A]
DENV-2 16681 strain
  EC50: 76 nM
  SI: 210
In vitro
  CC50: 16000 nM

## COc1cc(NC(C(=O)N2CCc3ccc(C(F)(F)F)cc32)c2ccc(Cl)cc2OCCCC(=O)O)cc(S(C)(=O)=O)c1 (racemic) [Compound 7, 4-(5-chloro-2-(1-((3-methoxy-5-(methylsulfonyl)phenyl)amino)-2-oxo-2-(6-(trifluoromethyl)indolin-1-yl)ethyl)phenoxy)butanoic acid]
DENV-2 16681 strain; [1]
  EC50: 0.58 nM
DENV-2 16681 strain
  SI: 21800
In vitro
  CC50: 13000 nM

Reference: patent US11179368B2, “Substituted indoline derivatives as dengue viral replication inhibitors” (JANSSEN PHARMACEUTICALS, INC., priority 2017, dated 2021)
